Test results: publication PMC12402836, “Taste Profile and Relative Bioavailability of Tovorafenib Powder for Oral Suspension and Food Effect of the Tovorafenib Tablet in Healthy Participants” (Clinical Pharmacology in Drug Development, 2025)
Read-outs that look alike come from different tables or passages of the source.

What was measured:
[1] = Relative bioavailability and food-effect pharmacokinetics (Part 2, 3-period crossover); type: in vivo, human
Protocol: In Part 2 of the study, 12 participants were randomized to 1 of 3 sequences (T[fast]S[fast]T[fed], S[fast]T[fed]T[fast], and T[fed]T[fast]S[fast]) (Figure S1B). In each treatment period, tovorafenib was administered on Day 1 as a tablet under fasted (T[fast]), as PfOS under fasted (S[fast]), or as a tablet after a high‐fat meal (T[fed]). Tovorafenib was administered in the morning after an overnight fast of 10 hours or more. For treatment groups T[fast] and S[fast], tovorafenib was given under fasted conditions (ie, no breakfast), while for the T[fed] group, it was administered 30 minutes after the start of a high‐fat meal. A total of 240 mL of water was administered with each tovorafenib tablet. For the PfOS, immediately after administration, the dosing vessel was rinsed with water, and participants were required to consume the rinse solution and additional water up to a total volume of 240 mL (including the dosing volume and volume used to rinse the dosing vessel). If needed, additional water in 50‐mL aliquots was provided and recorded but was not classed as a protocol deviation. Participants were required to fast for 4 hours or more after single‐dose administration of the tovorafenib tablet. The composition of the high‐fat meal consisted of 800‐1000 calories, of which approximately 54% of calories were from fat. To be eligible for dosing, participants were required to consume at least 90% of the meal provided. Intake of fluids was prohibited 1 hour before dosing until 1 hour after dosing, except for fluid consumed with breakfast before dosing and water for tovorafenib tablet intake. Blood samples were collected at regular intervals (see Blood Collection and Processing for PK Analysis in the Pharmacokinetic Assessments section for more details) for PK analysis from before dosing to 120 hours after dosing. […]
Plasma concentrations of tovorafenib were determined by a validated liquid chromatography with tandem mass spectrometry–based method with a lower limit of quantification of 0.5 ng/mL. […]

[2] = Safety assessments (adverse events, laboratory, vital signs, ECG); type: in vivo
Text: Safety evaluations included analysis of AEs, laboratory variables (hematology, clinical chemistry, and urinalysis), vital signs, electrocardiogram, and a physical examination. AEs were coded using the Medical Dictionary for Regulatory Activities Version 24.0. […] Treatment‐emergent AEs (TEAEs) were summarized by frequency, severity, and relatedness to the study drug. TEAE frequency (the number of TEAEs and the number of participants experiencing a TEAE) was tabulated by system organ class and preferred term. In the per‐participant analyses, a participant having the same event more than once was counted only once.

[3] = set-up: method as in PMID 37219686; details: cited from earlier work
[4] = set-up: method as in PMID 38967715, PMID 39412085; details: cited from earlier work
relapsed/refractory pLGG = test system: relapsed/refractory pLGG; set-up: method as in PMID 39808502, PMID 37978284; details: cited from earlier work
[5] = test system: aldehyde oxidase and cytochrome P450 (CYP) 2C8, CYP3A, CYP2C9, CYP2C19; set-up: method as in PMID 38967715, PMID 39412085; details: in vitro, minor contributions from CYP3A; cited from earlier work
[6] = test system: CYP2C8, CYP2C9, CYP2C19, CYP3A, CYP1A2, CYP2B6; set-up: method as in PMID 38967715, PMID 39412085; details: at clinically relevant concentrations, cited from earlier work
[7] = test system: breast cancer resistance protein; set-up: method as in PMID 38967715, PMID 39412085; details: at clinically relevant concentrations; cited from earlier work
[8] = 20-280 mg every 2 days and 400-800 mg every week

half-life ([1]; human, plasma, oral, range over regimens, 100 and 300 mg, read-out: Mean t1/2 values from the 3 treatment regimens): 62 to 89.5 h
AUC0‐last at 300 mg relative to 100 mg ([1]; single doses): ~2.5 fold
Cmax at 300 mg relative to 100 mg ([1]; single doses): approximately 2.3 fold
Structure (SMILES): C[C@@H](NC(=O)c1ncnc(N)c1Cl)c1ncc(C(=O)Nc2cc(C(F)(F)F)c(Cl)cn2)s1 [tovorafenib, 6‐amino‐5‐chloro‐N‐[(1R)‐1‐[5‐[[[5chloro‐4‐(trifluoromethyl)‐2‐pyridinyl]amino]carbonyl]‐2‐thiazolyl]ethyl]‐4‐pyrimidinecarboxamide]
Severity of all AEs ([2]; 100 mg dose regimens): mild
Myalgia, events ([2]; 300 mg): 10 events
Nonserious musculoskeletal AEs, mild ([2]; 300 mg): 5 participants
Nonserious musculoskeletal AEs, moderate ([2]; 300 mg): 3 participants
Nonserious musculoskeletal AEs, severe ([2]; 300 mg): 4 participants
Moderate AEs ([2]; 300 mg dose regimens): 7
Participants with nonserious musculoskeletal AEs ([2]; 300 mg, Period 1): 12 participants
Myalgia, participants reporting ([2]; 300 mg, [83.3%]): 10 participants
TEAEs reported during Part 1 ([2]; Part 1, sip and spit of PfOS formulations, n = 12): no TEAEs
Serious AEs or AEs leading to study drug discontinuation ([2]; Part 2): no serious AEs or AEs leading to study drug discontinuation
TEAEs related to tovorafenib ([2]; Part 2, all regimens): 60
Total TEAEs ([2]; Part 2, all regimens): 71
Participants reporting TEAEs ([2]; Part 2, all regimens, N = 12): 12 participants
Laboratory, vital sign, electrocardiogram, physical examination findings ([2]; either part of the study): no clinically significant abnormal
Dose proportionality of peak plasma concentration and exposure [3, 8]: roughly dose‐proportional
half-life [3, 8]: approximately 70 hours
Median tmax ([3]; after dosing): 3 h
Mean t1/2 ([3]; patients, 600 mg, multiple administrations): approximately 70 hours
Tovorafenib share of total plasma radioactivity exposure ([4]; single 100-mg oral dose of [14C]-tovorafenib): 78.7%
Dose recovered in the urine ([4]; single oral radiolabeled dose): 27%
Dose recovered unchanged in the feces ([4]; single oral radiolabeled dose): 8.6%
Dose recovered unchanged in the urine ([4]; single oral radiolabeled dose): 0.2%
Total radiolabeled dose recovered in the feces ([4]; single oral radiolabeled dose): 65%
Overall response rate (relapsed/refractory pLGG; 76 evaluable patients, 420 mg/m^2 once weekly (600 mg maximum), independent radiology review, RAPNO low-grade glioma criteria): 51%
Median duration of response (relapsed/refractory pLGG; FIREFLY-1 arm 1, 420 mg/m^2 once weekly): 13.8 months
Metabolizing enzymes [5]: primarily metabolized by aldehyde oxidase and cytochrome P450 (CYP) 2C8
Effect on CYP1A2 and CYP2B6 [6]: induces
Effect on CYP2C8, CYP2C9, CYP2C19, and CYP3A ([6]; in vitro): both inhibits and induces
Effect on breast cancer resistance protein [7]: inhibits
